Laboratory results as given in patent US10829473B2, “Modulators of the cystic fibrosis transmembrane conductance regulator protein and methods of use” (AbbVie Overseas S.Á.R.L., priority 2017, dated 2020).
Where two headings read alike, the source gives them in different places. Marks after values point to notes of the source that are not given here.

Molecular target: T1, F508delCFTR (Homo sapiens, UniProt P13569, DEL508-508)
T1 construct: expressed in transfected cells; host or cells: CFBE41o- human lung derived epithelial cells (CFBE41o-F508delCFTR-HRP), doxycycline-inducible
T1 sequence (P13569 with tags, fused parts or gaps DEL508-508): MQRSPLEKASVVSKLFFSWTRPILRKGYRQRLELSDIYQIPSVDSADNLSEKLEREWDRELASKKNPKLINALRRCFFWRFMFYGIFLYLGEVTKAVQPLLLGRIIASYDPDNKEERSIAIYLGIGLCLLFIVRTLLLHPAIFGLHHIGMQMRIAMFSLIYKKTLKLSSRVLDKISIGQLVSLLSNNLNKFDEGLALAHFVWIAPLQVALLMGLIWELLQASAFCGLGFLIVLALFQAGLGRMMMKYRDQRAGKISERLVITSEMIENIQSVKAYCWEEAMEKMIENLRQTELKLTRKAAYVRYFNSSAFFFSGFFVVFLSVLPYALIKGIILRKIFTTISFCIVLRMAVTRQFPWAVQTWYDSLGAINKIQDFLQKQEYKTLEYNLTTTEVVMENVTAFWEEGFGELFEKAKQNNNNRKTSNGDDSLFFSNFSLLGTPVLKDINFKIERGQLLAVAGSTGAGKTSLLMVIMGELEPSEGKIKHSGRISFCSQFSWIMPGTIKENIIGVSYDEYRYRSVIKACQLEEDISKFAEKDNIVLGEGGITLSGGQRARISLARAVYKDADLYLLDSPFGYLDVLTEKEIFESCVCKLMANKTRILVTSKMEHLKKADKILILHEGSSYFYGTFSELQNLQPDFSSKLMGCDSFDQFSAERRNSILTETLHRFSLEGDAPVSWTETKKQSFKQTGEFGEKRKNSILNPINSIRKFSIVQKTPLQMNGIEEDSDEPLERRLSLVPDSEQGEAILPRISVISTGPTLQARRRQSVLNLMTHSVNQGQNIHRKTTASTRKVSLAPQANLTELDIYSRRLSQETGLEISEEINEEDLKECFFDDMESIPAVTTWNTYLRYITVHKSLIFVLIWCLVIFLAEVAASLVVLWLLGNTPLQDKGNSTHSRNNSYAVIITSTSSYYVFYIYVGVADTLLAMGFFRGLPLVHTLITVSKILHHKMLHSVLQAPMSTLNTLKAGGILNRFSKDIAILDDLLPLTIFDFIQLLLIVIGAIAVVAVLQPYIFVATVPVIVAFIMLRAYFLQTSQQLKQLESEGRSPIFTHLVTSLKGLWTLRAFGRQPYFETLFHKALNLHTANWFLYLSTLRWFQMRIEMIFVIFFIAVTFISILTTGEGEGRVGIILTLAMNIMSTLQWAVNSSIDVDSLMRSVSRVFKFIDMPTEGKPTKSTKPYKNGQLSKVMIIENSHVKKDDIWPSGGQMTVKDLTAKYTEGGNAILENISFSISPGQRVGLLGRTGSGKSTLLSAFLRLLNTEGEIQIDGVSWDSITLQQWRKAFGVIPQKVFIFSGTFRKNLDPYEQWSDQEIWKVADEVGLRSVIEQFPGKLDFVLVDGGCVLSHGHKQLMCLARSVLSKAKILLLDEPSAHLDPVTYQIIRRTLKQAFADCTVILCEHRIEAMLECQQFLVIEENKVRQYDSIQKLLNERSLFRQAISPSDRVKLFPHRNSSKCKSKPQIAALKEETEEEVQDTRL
Assay: Cell Surface Expression-Horse Radish Peroxidase (CSE-HRP) Assay;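 as to EC50 (with co-corrector): co-corrector chromenyl benzoic acid corrector at 2 or 3 µM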;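 as to Maximum % activity (without co-corrector): % of on-plate positive control chromenyl benzoic acid corrector at 2 or 3 µM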
Format: cell-based
Conditions: for Maximum % activity (with co-corrector) / Emax: maximum at any tested concentration; for Emax: read-out: Maximum % activity (without co-corrector)
Summary of the method: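 Corrector compounds were given as 8-point 3-fold series from 20 or 30 μM, with or without a 2 μM co-corrector, for 18-24 h at 33 °C. Surface HRP was read by luminol luminescence as % of positive control; variable-Hill-slope sigmoidal fitting gave EC50 from triplicate plates.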

[1] = test compound with co-corrector
[2] = test compound with co-corrector, read-out: EC50 (with co-corrector)
[3] = test compound without co-corrector
[4] = test compound without co-corrector, read-out: EC50 (without co-corrector)
[5] = test compound alone, without co-corrector, read-out: EC50 (without co-corrector)
[6] = with co-corrector, read-out: EC50 (with co-corrector)

SMILES | Maximum % activity (with co-corrector) [1] | EC50 [2] [µM] | Emax [3] [%] | EC50 [4] [µM] | EC50 [5] [µM] | Maximum % activity (with co-corrector) (with co-corrector) | EC50 [6] [µM] | Emax (without co-corrector) [%] | EC50 (without co-corrector) [3] | EC50 (with co-corrector) [1]
CC(C)Oc1ncccc1C1(C(=O)NS(=O)(=O)c2cccc3ccccc23)CC1 [GII-2, N-(naphthalene-1-sulfonyl)-1-{2-[(propan-2-yl)oxy]pyridin-3-yl}cyclopropane-1-carboxamide] | ++ (≥150 and <350) | 3 to 10 | 50 to 150 | 3 to 10 |  |  |  |  |  | 
COc1ncc(C(F)(F)F)cc1C1(C(=O)NS(=O)(=O)c2cccc3c2ccn3C)CC1 [II-18] |  |  |  |  | 3 to 10 | +++ (≥350) | < 3 | > 150 |  | 
COc1ccc(Cl)c(OC)c1C1(C(=O)NS(=O)(=O)c2cccc3ncccc23)CC1 [II-54] |  |  |  |  | < 3 | +++ (≥350) | < 3 | > 150 |  | 
Cc1ccc2c(S(=O)(=O)NC(=O)C3(c4cc(C5CCC5)ncc4OC(C)C)CC3)cccc2n1 [Example GI-26, 1-{2-cyclobutyl-5-[(propan-2-yl)oxy]pyridin-4-yl}-N-(2-methylquinoline-5-sulfonyl)cyclopropane-1-carboxamide] |  |  |  |  | 3 to 10 | +++ (≥350) | < 3 | > 150 |  | 
CCc1ccc(OC)c(C2(C(=O)NS(=O)(=O)c3cccc4nc(C)ccc34)CC2)c1 [Example I-84, 1-(5-ethyl-2-methoxyphenyl)-N-(2-methylquinoline-5-sulfonyl)cyclopropane-1-carboxamide] |  |  |  |  | < 3 | +++ (≥350) | < 3 | > 150 |  | 
Cc1cnc(OCC(C)C)c(C2(C(=O)NS(=O)(=O)c3cccc4nc(N)ccc34)CC2)c1 [Example I-96, N-(2-aminoquinoline-5-sulfonyl)-1-[5-methyl-2-(2-methylpropoxy)pyridin-3-yl]cyclopropane-1-carboxamide] |  |  |  |  | < 3 | +++ (≥350) | < 3 | > 150 |  | 
COCCOc1ncc(OC)cc1C1(C(=O)NS(=O)(=O)c2cccc3[nH]ccc23)CC1 [GII-43, N-(1H-indole-4-siilfonyl)-1-[5-methoxy-2-(2-methoxyethoxy)pyridin-3-yl]cyclopropane-1-carboxamide] | ++ (≥150 and <350) | 3 to 10 | 50 to 150 |  |  |  |  |  | ++^a | 
COc1ccc(C2(OC)CCC2)cc1C1(C(=O)NS(=O)(=O)c2cccc3ncccc23)CC1 [Example I-88, 1-[2-methoxy-5-(1-methoxycyclobutyl)phenyl]-N-(quinoline-5-sulfonyl)cyclopropane-1-carboxamide] |  |  |  |  | 3 to 10 | +++ (≥350) | < 3 | > 150 |  | 
COc1cccc(C)c1C1(C(=O)NS(=O)(=O)c2cccc3ccc(C)nc23)CC1 [II-45] |  |  |  |  | 3 to 10 | +++ (≥350) | < 3 | > 150 |  | 
COc1ccc(C2(C)COC2)cc1C1(C(=O)NS(=O)(=O)c2cccc3ncccc23)CC1 [II-89] |  |  |  |  | 3 to 10 | +++ (≥350) | 3 to 10 | > 150 |  | 
COc1cc(C2(C(=O)NS(=O)(=O)c3cccc4ncccc34)CC2)c(C)cn1 [GII-13, 1-(2-methoxy-5-methylpyridin-4-yl)-N-(quinoline-5-sulfonyl)cyclopropane-1-carboxamide] | +++ (≥350) | 3 to 10 | 50 to 150 | 3 to 10 |  |  |  |  |  | 
CCc1cnc(N2CCC(COC)CC2)c(C2(C(=O)NS(=O)(=O)c3cccc4ncccc34)CC2)c1 [GII-59, 1-{5-ethyl-2-[4-(methoxymethyl)piperidin-1-yl]pyridin-3-yl}-N-(quinoline-5-sulfonyl)cyclopropane-1-carboxamide] | +++ (≥350) | 3 to 10 | > 150 | 3 to 10 |  |  |  |  |  | 
COc1ccc(C2CC2)cc1C1(C(=O)NS(=O)(=O)c2cccc3nc(C)ccc23)CC1 [Example I-68, 1-(5-cyclopropyl-2-methoxyphenyl)-N-(2-methylquinoline-5-sulfonyl)cyclopropane-1-carboxamide] |  |  |  |  | < 3 |  | < 3 |  |  | 
COc1ncc(C2CCC2)cc1C1(C(=O)NS(=O)(=O)c2cccc3ncc(C)n23)CC1 [II-16] |  |  |  |  | 3 to 10 | +++ (≥350) | < 3 | > 150 |  | 
COc1ccc(C)c(OC)c1C1(C(=O)NS(=O)(=O)c2cccc3ncccc23)CC1 [Example I-41, 1-(2,6-dimethoxy-3-methylphenyl)-N-(quinoline-5-sulfonyl)cyclopropane-1-carboxamide] |  |  |  |  | < 3 | +++ (≥350) | < 3 | > 150 |  | 
COc1nc2ccccc2cc1C1(C(=O)NS(=O)(=O)c2cccc3ncccc23)CC1 [Example I-76, 1-(2-methoxyquinolin-3-yl)-N-(quinoline-5-sulfonyl)cyclopropane-1-carboxamide] |  |  |  |  | 3 to 10 | +++ (≥350) | < 3 | > 150 |  | 
COc1ncc(C2CCC2)c(C)c1C1(C(=O)NS(=O)(=O)c2cccc3cnn(C)c23)CC1 [II-43] |  |  |  |  | < 3 | +++ (≥350) | < 3 | 50 to 150 |  | 
CCc1cnc(N2CCC(OC(C)C)CC2)c(C2(C(=O)NS(=O)(=O)c3cccc4ncccc34)CC2)c1 [GII-54, 1-(5-ethyl-2-{4-[(propan-2-yl)oxy]piperidin-1-yl}pyridin-3-yl)-N-(quinoline-5-sulfonyl)cyclopropane-1-carboxamide] | +++ (≥350) | 3 to 10 | > 150 | 3 to 10 |  |  |  |  |  | 
COc1cccc(C)c1C1(C(=O)NS(=O)(=O)c2cccc3ncccc23)CC1 [II-35] |  |  |  |  | 3 to 10 | +++ (≥350) | < 3 | > 150 |  | 
Cc1ccc(OC(C)C)c(C2(C(=O)NS(=O)(=O)c3cccc4[nH]ncc34)CC2)c1 [II-75] |  |  |  |  | < 3 | +++ (≥350) | < 3 | > 150 |  | 
COc1ncc(C)cc1C1(C(=O)NS(=O)(=O)c2cccc3c2CCCN3)CC1 [II-10] |  |  |  |  | 3 to 10 | +++ (≥350) | 3 to 10 | > 150 |  | 
COCCOc1ncc(OC)cc1C1(C(=O)NS(=O)(=O)c2cccc3nc(C)ccc23)CC1 [GII-42, 1-[5-methoxy-2-(2-methoxyethoxy)pyridin-3-yl]-N-(2-methylquinoline-5-sulfonyl)cyclopropane-1-carboxamide] | ++ (≥150 and <350) | 3 to 10 | 50 to 150 |  |  |  |  |  | ++^a | 

Further lines, results first:

Maximum % activity (with co-corrector) [1] | EC50 [2] [µM] | Emax [3] [%] | EC50 [4] [µM] | EC50 [5] [µM] | Maximum % activity (with co-corrector) (with co-corrector) | EC50 [6] [µM] | Emax (without co-corrector) [%] | EC50 (without co-corrector) [3] | EC50 (with co-corrector) [1] | SMILES
 |  |  |  | > 10 | + (<150) | > 10 | < 50 |  |  | O=C(NS(=O)(=O)c1ccc(-c2ccno2)s1)C1(c2ccc(Cl)cc2Cl)CC1 [Example III-17, 1-(2,4-dichlorophenyl)-N-[5-(1,2-oxazol-5-yl)thiophene-2-sulfonyl]cyclopropane-1-carboxamide]
+ (<150) | > 10 | < 50 | > 10 |  |  |  |  |  |  | CCc1ccncc1C1(C(=O)NS(=O)(=O)c2cccc3ncccc23)CC1 [GIII-6]
 |  |  |  | 3 to 10 | +++ (≥350) | 3 to 10 | > 150 |  |  | COc1ncc(C(F)(F)F)cc1C1(C(=O)NS(=O)(=O)c2cccn3nccc23)CC1 [Example III-95, 1-[2-methoxy-5-(trifluoromethyl)pyridin-3-yl]-N-(pyrazolo[1,5-a]pyridine-4-sulfonyl)cyclopropane-1-carboxamide]
+ (<150) | > 10 | < 50 | > 10 |  |  |  |  |  |  | COc1ncc(C2(C(=O)NS(=O)(=O)c3cccc4ncccc34)CC2)c(OC)n1 [GIII-24]
 |  |  |  | > 10 | + (<150) | > 10 | < 50 |  |  | O=C(NS(=O)(=O)Cc1ccccc1)C1(c2cccc(Cl)c2)CC1 [Example III-109, 1-(3-chlorophenyl)-N-(phenylmethanesulfonyl)cyclopropane-1-carboxamide]
 |  |  |  | 3 to 10 | ++ (≥150 and <350) | < 3 | < 50 |  |  | CC(C)(C)OC(=O)N1CCC(C(=O)NS(=O)(=O)c2cccc3ccccc23)(c2ccc(F)cc2)CC1 [Example III-89, tert-butyl 4-(4-fluorophenyl)-4-[(naphthalene-1-sulfonyl)carbamoyl]piperidine-1-carboxylate]
+ (<150) | > 10 | < 50 | > 10 |  |  |  |  |  |  | COc1ncc(C2(C(=O)NS(=O)(=O)c3cccc4c3CCCN4)CC2)c(OC)n1 [GIII-12]
++ (≥150 and <350) |  | < 50 |  |  |  |  |  | ++^a | ++^a | Cc1cnc(F)cc1C1(C(=O)NS(=O)(=O)c2cccc3c2CCCN3)CC1 [GIII-7]
+ (<150) |  | < 50 | > 10 |  |  |  |  |  | ++^a | COc1nc(N)ccc1C1(C(=O)NS(=O)(=O)c2cccc3ncccc23)CC1 [GIII-30]
